# “And” between values parts separate entries of the source, which are not always exact repeats. Identical values can stand only once.
# Columns and labels:
# Type in all cases: in vivo
# Tomato plants cv. H9478 = assay: Protection of drought injury and enhancement of recovery
# Protocol: Tomato plants cv. […] (cultivar of Heinz Co.) were grown in 20 liter pots and placed in a growth chamber maintained at 24/18° C. day/night temperatures and a 16 hour photoperiod with 400 μmol m^-2s^-1 of cool-white fluorescent lights. Two month-old plants were sprayed with either distilled water, […]) or LPE 18:1 (100 mg/L) before exposure to drought stress. Drought stress was given by withholding water for 2 days. The plants were sprayed once again with distilled water, […]) or LPE 18:1 (100 mg/L) right after water was given (alleviation of water stress). During drought stress, all water, […] 18:1-sprayed plants were severely wilted but regained turgor soon after water was given again.
# Tomato Plants cv. H9144 [1] = assay: Protection of pesticide (Marathon, imidacloprid) injury and enhancement of recovery; conditions: 200 mg/L in 1% ethanol; 10 days after spraying (FIG. 3)
# Description: Marathon with active […] of imidacloprid (available from Olympic Chemical Co., PO Box K, Mainland, Pa.) is a pesticide used for controlling whitefly in plants. This is a systemic pesticide and is introduced to the plant via soil application. As the pesticide accumulates in the foliage the insects feeding on the plants are killed. Sometimes as this chemical accumulates in the plant it can result in phytotoxicity to the plant. To test this, tomato plants cv. […] (cultivar of Heinz Co.) were grown for two (2) months in 20 liter pots in a greenhouse. […] Many leaves lost chlorophyll and plants had poor shoot growth. Three weeks after the treatment of pesticide, […]18:1 or LPI (200 mg/L each) solution containing 1% ethanol were sprayed to the point that solution started to run off the leaves. Control plants were sprayed with distilled water containing 1% ethanol. The LPE solution was prepared by wetting 200 mg of LPE in 1 ml ethanol and then adding distilled water to make 1 liter of total volume. The LPE solution was then sonicated 1 minute before spraying.
# 'Hazel' oat seeds = assay: Seedling vigour (root and shoot fresh weight) of 'Hazel' oats soaked in LPE or LPC; conditions: 10 ppm (each), incubated at 20° C.; for Root fresh wt per seedling / Shoot Fresh wt per seedling: soaked 30 minutes; for Root fresh wt per seedlings / Shoot Fresh wt per seedlings: soaked 2 hours
# Description: Values are mean±SE (4 replications). […] Values are mean±SE (4 replications).
# Tomato Plants cv. H9144 [2] = assay: Protection of chilling injury and enhancement of recovery, tomato seedlings; conditions: for Leaf Chlorophyll Mean ± SE / Leaf Phospholipids Mean ± SE / Leaf Water (fresh/dry wt ratio) Mean ± SE: measured 10 days after chilling
# Protocol: Tomato Plants cv. […] (cultivar of Heinz Co.) were grown in 20-liter pots containing […], Ohio) in a greenhouse which was supplied with additional tungsten light for a 16 hour photoperiod. […] Control leaf branch was sprayed with distilled water. The LPE solution was prepared by suspending 200 mg of crude […] (Avanti Polar Lipids, Inc., Alabaster, Ala.) in one liter of distilled water and then sonicating for 1 minute before spraying. After 4 days of chilling treatment at 4/2° C. day/night temperatures and a 16 hour photoperiod with 200 μmol m^-2 s^-1 fluorescent light intensity, plants were transferred to a growth chamber maintained at 24/18° C. day/night temperatures and a 16 hour photoperiod with 400 μmol m^-2 s^-1 of fluorescent light intensity. […] When measured 10 days after chilling, LPE-sprayed leaf tissues, either before or after chilling, had higher levels of water, chlorophyll, and phospholipid content than water-sprayed control (see Table 1 below). […] Chilling and recovery conditions were the same as in Example 1a above.
# H.2350 field corn seeds = assay: Germination and seedling fresh weight of field corn seeds soaked in LPE solution; conditions: incubated at 25° C. for 8 days
# Protocol: H.2350 (Certified seed obtained from the Wisconsin Crop Improvement Association, Madison, Wis.) field corn seeds were soaked in LPE solution. Seeds were incubated at 25° C. for 8 days using the procedure described in Example 6. Four replications were conducted with 50 seeds in each replication.
# [3] = system: castor bean (Ricinus communis L. cv Hale)
# 'Hazel' oats = assay: Germination of 'Hazel' oats soaked in LPE or LPC; conditions: 10 ppm (each), incubated at 20° C.
# Protocol: ‘Hazel’ oats (Certified seed obtained from the Wisconsin Crop Improvement Association, Madison, Wis.) were soaked in LPE or LPC. Seeds were soaked for either 30 minutes or 2 hours at room temperature (23±2° C.) and then incubated at 20° C. using the official seed germination test rules (Rules for testing seeds are published by the Association of Official Seed Analysts) for testing seeds. Four replications were conducted with 100 seeds in each replication. […] Moreover, a greater proportion of the seeds treated with these lipids, germinated earlier. Thus, this seed treating increased both the rate and amount of seed germination.
# [4] = system: Sweet corn seeds (SS Jubilee); assay: Germination and seedling fresh mass of sweet corn seeds soaked in LPE solution; conditions: soaked 2 hours
# Protocol: Sweet corn seeds (SS Jubilee, certified seed obtained from the Wisconsin Crop Improvement Association, Madison Wis.) were soaked for 2 hours in LPE solution. Seeds were removed from the LPE solution and 50 seeds were placed on 2 paper towels and wetted with distilled water (5 seeds in one row) then seeds were covered with another wet paper towel. The three towels with the seeds were rolled, placed in a metal container and incubated at 25° C. The container was covered with plastic and the cover secured with a rubber band. The germination percentage was tested after 4 and 7 days. The procedure was as specified by the Association of Official Seed Analysts. Four replications were conducted with 50 seeds in each replication. […] Furthermore, LPE treated seeds produced larger (root and shoot) seedlings. SS Jubilee sweet corn seeds were soaked for 2 hours in LPE solution. Seeds were incubated using the same procedure described in Example 6. The germination percentage was tested after 4 and 7 days. Four replications were conducted with 50 seeds in each replication. […] On a commercial level, this means that LPE treatment of the seeds will insure more plants in a given field and that LPE treated seeds will produce plants having a head start.
# [5] = system: Cucumber (Cucumis sativus inbred line-WI2238) plants; assay: Protection of chilling injury and recovery, cucumber seedlings; conditions: 100 mg/L sprayed twice, 1 hour before and right after 2 days chilling
# Protocol: Cucumber (Cucumis sativus inbred line-WI2238) plants were grown in 4 liter plastic pots containing a sterilized mixture of peat:sand:composited soil:field soil (1:1:1:1, v/v) at a greenhouse. Growing conditions and other details were same as in Example 1a. […] After 2 days of chilling treatment at the same conditions as in Example 1a , plants were transferred to a growth chamber maintained at 23±2° C. temperature and 16 hour photoperiod with 400 μmol […] of fluorescent light intensity.
# [6] = 100 mg/L sprayed before drought and right after water was given, after 2 or 3 days
# [7] = 200 mg/L LPEegg spray, 4 days chilling at 4/2° C., vs water-sprayed control
# [8] = 200 mg/L sprayed 1 hour before chilling
# [9] = 200 mg/L sprayed right after chilling
molecule,measurement,setting,value
CCCCCCCC/C=C\CCCCCCCC(=O)OCC(O)COP(=O)(O)OCCN (stereo not drawn) [LPE 18:1],shoot growth after drought stress,Tomato plants cv. H9478; [6],vigorous shoot growth
same,shoot growth after drought stress,"Tomato plants cv. H9478; 100 mg/L, 7 days after drought stress was alleviated (FIG. 2)",vigorous shoot growth
same,shoot growth after pesticide injury,Tomato Plants cv. H9144 [1],vigorous shoot growth
Lysophosphatidyl choline [LPC],Root fresh wt per seedling,'Hazel' oat seeds,40.4 ± 2.7 mg
same,Shoot Fresh wt per seedling,'Hazel' oat seeds,108.9 ± 4.5 mg
same,Root fresh wt per seedlings,'Hazel' oat seeds,48.9 ± 0.7 mg
same,Shoot Fresh wt per seedlings,'Hazel' oat seeds,130.4 ± 2.7 mg
lysophosphatidylethanolamine [LPE],protection from chilling injury,"Tomato Plants cv. H9144 [2]; 100 mg/L LPEegg sprayed 1 hour before chilling, vs water-sprayed and non-sprayed controls",most effective in protecting the plant from chilling injury
same,chilling damage to the leaves,Tomato Plants cv. H9144 [2]; [7],mitigation of chilling damage to the leaves
same,shoot meristem growth after chilling,Tomato Plants cv. H9144 [2]; [7],enhanced shoot meristem growth
same,Leaf Chlorophyll Mean ± SE,Tomato Plants cv. H9144 [2]; [8],21.6 ± 0.1 mg/g dry wt
same,Leaf Phospholipids Mean ± SE,Tomato Plants cv. H9144 [2]; [8],25.9 ± 0.3 nmol/mg dry wt
same,Leaf Water (fresh/dry wt ratio) Mean ± SE,Tomato Plants cv. H9144 [2]; [8],10.1 ± 0.4 fresh/dry wt ratio
same,Leaf Chlorophyll Mean ± SE,Tomato Plants cv. H9144 [2]; [9],28.2 ± 4.0 mg/g dry wt
same,Leaf Phospholipids Mean ± SE,Tomato Plants cv. H9144 [2]; [9],25.7 ± 1.0 nmol/mg dry wt
same,Leaf Water (fresh/dry wt ratio) Mean ± SE,Tomato Plants cv. H9144 [2]; [9],10.81 ± 0.5 fresh/dry wt ratio
same,shoot growth after drought stress,Tomato plants cv. H9478; [6],vigorous shoot growth
same,% Germination,H.2350 field corn seeds; 5 ppm,97.0 ± 0.6%
same,"Fresh Weight Root (primary + secondary), average mass produced from 50 seeds",H.2350 field corn seeds; 5 ppm,14.2 ± 0.8 g
same,"Fresh Weight Shoot, average mass produced from 50 seeds",H.2350 field corn seeds; 5 ppm,16.2 ± 0.6 g
same,% Germination,H.2350 field corn seeds; 10 ppm,98.5 ± 1.0%
same,"Fresh Weight Root (primary + secondary), average mass produced from 50 seeds",H.2350 field corn seeds; 10 ppm,13.6 ± 0.3 g
same,"Fresh Weight Shoot, average mass produced from 50 seeds",H.2350 field corn seeds; 10 ppm,15.6 ± 0.7 g
same,Root fresh wt per seedling,'Hazel' oat seeds,48.4 ± 1.9 mg
same,Shoot Fresh wt per seedling,'Hazel' oat seeds,124.1 ± 3.0 mg
same,Root fresh wt per seedlings,'Hazel' oat seeds,46.4 ± 0.6 mg
same,Shoot Fresh wt per seedlings,'Hazel' oat seeds,121.1 ± 2.5 mg
same,leaf curling and browning after wounding,[3]; after 1 day,much less leaf curling and browning
same,leaf turgidity after wounding,[3]; in vivo,remained turgid for several days
same,wound-healing symptoms,[3]; in vivo,leaf damaged areas were healed and gained green color
same,% Germination (Mean ± SE) After 4 days,'Hazel' oats; soaked 30 min,87.7 ± 0.9% and 82.5 ± 1.7%
same,% Germination (Mean ± SE) After 10 days,'Hazel' oats; soaked 30 min,91.3 ± 0.7% and 90.8 ± 1.1%
same,% Germination (Mean ± SE) After 4 days,'Hazel' oats; soaked 2 hours,82.8 ± 1.1% and 82.0 ± 1.2%
same,% Germination (Mean ± SE) After 10 days,'Hazel' oats; soaked 2 hours,94.3 ± 1.3% and 93.5 ± 1.0%
same,"Average Fresh Mass Produced from 50 seeds, Root (primary + secondary)","[4]; Table 2, 5 ppm",1.6 ± 0.4 g
same,"Average Fresh Mass Produced from 50 seeds, Shoot","[4]; Table 2, 5 ppm",10.0 ± 0.5 g
same,% Germination After 4 days,"[4]; Table 2, 5 ppm, 25° C.",61.0 ± 1.7%
same,% Germination After 7 days,"[4]; Table 2, 5 ppm, 25° C.",70.0 ± 2.2%
same,"Average Fresh Mass Produced from 50 seeds, Root (primary + secondary)","[4]; Table 2, 10 ppm",1.3 ± 0.1 g
same,"Average Fresh Mass Produced from 50 seeds, Shoot","[4]; Table 2, 10 ppm",8.7 ± 0.2 g
same,% Germination After 4 days,"[4]; Table 2, 10 ppm, 25° C.",69.0 ± 2.6%
same,% Germination After 7 days,"[4]; Table 2, 10 ppm, 25° C.",71.5 ± 2.8%
same,"Average Fresh Mass Produced from 50 seeds, Root (primary + secondary)","[4]; Table 2, 20 ppm",1.2 ± 0.0 g
same,"Average Fresh Mass Produced from 50 seeds, Shoot","[4]; Table 2, 20 ppm",10.4 ± 0.4 g
same,% Germination After 4 days,"[4]; Table 2, 20 ppm, 25° C.",60.0 ± 3.6%
same,% Germination After 7 days,"[4]; Table 2, 20 ppm, 25° C.",65.0 ± 1.3%
same,% Germination After 4 days,"[4]; Table 3 (Example 7), 1 ppm",68.5 ± 4.0%
same,% Germination After 7 days,"[4]; Table 3 (Example 7), 1 ppm",76.5 ± 4.6%
same,"Average Fresh Mass Produced from 50 seeds, Root (primary + secondary)","[4]; Table 3 (Example 7), 1 ppm",0.9 ± 0.1 g
same,"Average Fresh Mass Produced from 50 seeds, Shoot","[4]; Table 3 (Example 7), 1 ppm",9.1 ± 0.8 g
same,% Germination After 4 days,"[4]; Table 3 (Example 7), 10 ppm",61.5 ± 5.7% and 73.8 ± 2.8%
same,% Germination After 7 days,"[4]; Table 3 (Example 7), 10 ppm",68.0 ± 3.4% and 78.0 ± 2.3%
same,"Average Fresh Mass Produced from 50 seeds, Root (primary + secondary)","[4]; Table 3 (Example 7), 10 ppm",0.8 ± 0.0 g and 1.1 ± 0.1 g
same,"Average Fresh Mass Produced from 50 seeds, Shoot","[4]; Table 3 (Example 7), 10 ppm",7.6 ± 0.3 g and 10.4 ± 0.4 g
same,chilling damage in leaves,[5],severe chilling damage in leaves
same,shoot growth after chilling,[5]; after 7 days,vigorous shoot growth
lysophosphatidylinositol [LPI],shoot growth after pesticide injury,Tomato Plants cv. H9144 [1],vigorous shoot growth
